Data taken from patent US20200246284A1 (Academia Sinica, priority 2015, published 2020).
Values joined by “and” are separate entries in the source; they are usually repeats but may differ in a detail not shown here. Equal values may be shown once. Read-outs that look alike come from different tables or passages of the source.

Experiments:
[1] = tested on: spontaneous murine B-cell lymphoma; details: mouse
[2] = tested on: REC-1; assay: Combination with BO-1055, MCL (Tables 28, 29); assay type: cell-based, human; details: read-out: IC50 single drug
[3] = target: P-glycoprotein (P-gp) (Homo sapiens, UniProt P08183); assay: P-gp mediated efflux in Caco-2 monolayers
P-glycoprotein (P-gp), sequence (P08183 whole entry): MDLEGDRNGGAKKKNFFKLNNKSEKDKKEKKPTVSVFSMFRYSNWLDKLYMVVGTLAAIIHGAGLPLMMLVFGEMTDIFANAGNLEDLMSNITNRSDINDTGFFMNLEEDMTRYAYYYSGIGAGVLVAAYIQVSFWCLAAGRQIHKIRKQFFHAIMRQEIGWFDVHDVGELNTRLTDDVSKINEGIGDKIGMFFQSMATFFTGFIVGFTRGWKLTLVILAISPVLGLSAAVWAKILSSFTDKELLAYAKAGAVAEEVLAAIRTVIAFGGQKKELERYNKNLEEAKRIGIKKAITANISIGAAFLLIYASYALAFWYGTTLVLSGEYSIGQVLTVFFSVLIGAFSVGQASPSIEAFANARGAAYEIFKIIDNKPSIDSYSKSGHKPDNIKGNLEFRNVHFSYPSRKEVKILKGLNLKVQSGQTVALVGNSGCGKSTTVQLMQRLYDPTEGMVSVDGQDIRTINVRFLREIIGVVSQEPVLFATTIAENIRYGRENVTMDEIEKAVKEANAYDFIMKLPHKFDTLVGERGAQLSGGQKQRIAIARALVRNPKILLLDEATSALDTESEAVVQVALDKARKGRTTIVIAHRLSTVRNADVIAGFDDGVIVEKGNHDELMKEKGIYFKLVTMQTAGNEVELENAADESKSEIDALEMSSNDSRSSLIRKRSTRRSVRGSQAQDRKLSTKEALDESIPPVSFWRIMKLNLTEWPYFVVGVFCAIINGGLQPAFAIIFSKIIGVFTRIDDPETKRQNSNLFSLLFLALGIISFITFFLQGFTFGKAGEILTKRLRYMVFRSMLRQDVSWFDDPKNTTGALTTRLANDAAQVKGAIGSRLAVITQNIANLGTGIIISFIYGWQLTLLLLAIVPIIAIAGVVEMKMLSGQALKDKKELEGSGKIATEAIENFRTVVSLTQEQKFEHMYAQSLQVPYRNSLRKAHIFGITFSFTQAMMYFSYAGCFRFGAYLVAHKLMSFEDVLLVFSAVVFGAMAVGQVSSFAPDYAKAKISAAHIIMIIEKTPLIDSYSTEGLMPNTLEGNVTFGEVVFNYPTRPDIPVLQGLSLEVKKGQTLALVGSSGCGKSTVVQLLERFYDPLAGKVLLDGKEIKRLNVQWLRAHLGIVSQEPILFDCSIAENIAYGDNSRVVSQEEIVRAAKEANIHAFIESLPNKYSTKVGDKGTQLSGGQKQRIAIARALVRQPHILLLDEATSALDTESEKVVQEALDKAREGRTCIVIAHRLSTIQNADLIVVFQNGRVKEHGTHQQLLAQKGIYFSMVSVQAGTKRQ

[4] = tested on: primary Pre-B-ALL cells in NSG mice; assay: Primary pre-B-ALL xenograft; assay type: in vivo, mouse; details: Q10D2x from day 7
[5] = for Microsome stability, turnover: 60 mins
[6] = tested on: SMS-CTR rhabdomyosarcoma; assay: Cytotoxicity sarcoma; assay type: cell-based; details: Homo sapiens; SMS-CTR embryonal type
[7] = tested on: SUDHL-4; details: human
Procedure: (§1) After 72 hours, the cultures were pulsed with Alamar Blue overnight, and the fluorescent intensity of resulted cultures was measured by a Synergy H1 plate-reader (BioTek Inc).

[8] = tested on: Ly3 (OCI-LY3); details: human
Procedure: as §1

[9] = tested on: SET2; assay: Cytotoxicity leukemia; assay type: cell-based; details: Homo sapiens, SET-2; SET2 JAK2-V617 mut
[10] = tested on: JEKO-1; details: human
Procedure: as §1

[11] = tested on: H322; assay type: cell-based, human
[12] = tested on: BEAS2B SV40 bronchial epithelium; assay type: cell-based, human
[13] = tested on: H1781; assay type: cell-based, human
[14] = tested on: HCC364; assay type: cell-based, human
[15] = tested on: HCC15; assay type: cell-based, human
[16] = tested on: MOR; assay: Cytotoxicity NSCLC; assay type: cell-based, human
[17] = tested on: H187; assay: Cytotoxicity SCLC 72 hr alamar blue; assay type: cell-based, human
[18] = tested on: H3255; assay type: cell-based, human
[19] = tested on: CALU-1; assay type: cell-based, human
[20] = tested on: CALU-6; assay type: cell-based, human

In the case of CN(C)CCNC(=O)c1cccc(NC(=O)Nc2ccc(N(CCCl)CCCl)cc2)c1 [BO-1055, Ureidomustine], the IC50 [1] is reported as 0.46 µM, the IC50 [2] is reported as 17.7 µM and 12.5 µM and 19.3 µM and the P-gp assessment [3] is reported as “Possible P-gp liabilities”. The “reduction of tumor growth” value [4] was 2 log, the “survival longer than control” value [4] was about 100 days and the “Microsome stability, turnover” value [5] was 75%. The “Microsome stability, turnover” value ([5]; listed as ureidomustine) was 75% (60 mins turnover %), the “% Remaining at 60 min” value ([5]; RLM) was 25% and the “MR (metabolic rate)” value ([5]; RLM, 60 min) was 0.0203 nmol/min/mg. It also gave an IC50 [6] of 10 µM, an IC50 [7] of 1.95 µM and an IC50 [8] of 3.5 µM. It also gave an IC50 [9] of over 10 µM and an IC50 [10] of 0.27 µM.

N.N.[Cl][Pt][Cl] [Cisplatin] gave an IC50 [11] of at least 10 µM, an IC50 [12] of 4.1 µM and an IC50 [13] of 1.67 µM. The IC50 [14] was at least 75 µM, the IC50 [15] was at least 85 µM and the IC50 [16] was 3.9 µM. For the same compound, the IC50 [17] was 1.01 µM, the IC50 [18] was at least 25 µM and the IC50 [19] was at least 20 µM. It also gave an IC50 [20] of 3.25 µM.
